Our source for the IC50 and inhibition values is US20250282746A1, “HALOGEN-SUBSTITUTED ISOINDOLINE COMPOUND AND USE THEREOF” (CHENGDU FENDI PHARMACEUTICAL CO., LTD., priority 2022, published 2025).

The subject of one experiment is MV-4-11 cells. Put plainly: Antiproliferative activity against MV-4-11 cells (CellTiter-Glo, 72 h). Type of experiment: cell-based. The following applies: Homo sapiens, read-out: Antiproliferative activity IC50. As for the experimental part:
MV411 cells in the logarithmic growth phase were diluted in a medium (RPMI+10% FBS) and plated at 5,000 cells/well in 96-well whole black plates (WHB) with 50 μL/well. After plating, the plates were incubated in an incubator at 5% CO2 and 37° C. for 24 h before the compounds were added. The compounds were prepared into a 10 mM stock solution in DMSO and diluted in a culture medium to the desired concentrations (a final DMSO concentration of 0.2%). […] The plates were incubated at 5% CO2 and 37° C. for 72 h. After the incubation was complete, the plates were equilibrated at room temperature for 30 min. CellTiter-Glo® Reagent (Promega G7573) was added at 100 μL/well. The plates were shaken for 12 min on a microplate shaker. The luminescence value was measured at room temperature by the GloMax navigator (Promega GM2010).

For another experiment, the target named is T1, GSPT1 protein (Homo sapiens, UniProt P15170).
T1 construct: The whole cell lysate was prepared using a RIPA lysis buffer; endogenous in cells; host or cells: NB-4 cells
In words: Degradation of GSPT1 protein in NB-4 cells (Western blot). Type of experiment: cell-based. The following applies: read-out: GSPT1 degradation. The procedure:
150 μL of DMSO and the compounds (1 μM) were added, and the mixture was incubated in an incubator at 5% CO2 and 37° C. for 6 h. The cells were centrifuged, and the culture medium was discarded. PBS was added for washing and then discarded. The whole cell lysate was prepared using a RIPA lysis buffer containing a protease inhibitor cocktail and a phosphatase inhibitor, and incubated on ice for 30 min. The mixture was centrifuged, and the cell debris was discarded. The whole cell lysate supernatant was collected and transferred to a fresh EP tube. Samples were prepared using a loading buffer after a BCA protein assay. The samples were incubated in a metal bath at 100° C. for 10 min.
The samples were electrophoretically separated from proteins on a 4-20% precast gel (SDS-PAGE gel), transferred to a PVDF membrane, blocked with 5% NFDM/TBST for 1 h at room temperature, co-incubated overnight at 4° C. with the primary antibody, and co-incubated for 2 h at room temperature with the secondary antibody on the next day. The signals were detected on the […]™ imaging system.
On the technique in general: A western blot detects proteins with antibodies after separation by electrophoresis.

Where two headings read alike, the source gives them in different places.

T1 sequence (P15170 whole entry): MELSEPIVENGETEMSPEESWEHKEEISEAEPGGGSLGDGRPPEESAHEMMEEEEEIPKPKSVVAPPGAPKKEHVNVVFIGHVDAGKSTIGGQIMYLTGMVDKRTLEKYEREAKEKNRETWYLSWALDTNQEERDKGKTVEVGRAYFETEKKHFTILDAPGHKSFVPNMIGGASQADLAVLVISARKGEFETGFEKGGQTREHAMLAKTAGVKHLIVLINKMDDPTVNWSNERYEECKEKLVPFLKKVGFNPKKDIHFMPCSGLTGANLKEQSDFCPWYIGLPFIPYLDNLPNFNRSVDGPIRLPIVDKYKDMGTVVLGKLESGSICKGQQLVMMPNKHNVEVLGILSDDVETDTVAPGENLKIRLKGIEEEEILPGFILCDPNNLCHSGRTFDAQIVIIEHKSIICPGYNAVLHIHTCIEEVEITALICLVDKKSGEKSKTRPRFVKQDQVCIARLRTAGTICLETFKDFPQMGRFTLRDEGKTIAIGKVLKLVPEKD

For the compound `O=C1CCC(N2Cc3c(ccc(CNC(=O)c4ccc(F)cc4)c3F)C2=O)C(=O)N1` (stereo not drawn) [FDAB-49], the IC50 with MV-4-11 cells (MV4-11, MV-4-11 cells, 72 h) was above 1000 nM. The inhibition at 1 µM at GSPT1 protein (NB-4 cells, compound 1 μM, 6 h) is below 25%.
In the case of `O=C1CCC(N2Cc3cc(CNC(=O)c4ccc(Cl)c(F)c4)c(F)cc3C2=O)C(=O)N1` (stereo not drawn) [FDAB-53], the half-maximal inhibitory concentration (IC50) with MV-4-11 cells (MV4-11, MV-4-11 cells, 72 h) lay within 10 to 100 nM. Further, the inhibition at 1 µM at GSPT1 protein (NB-4 cells, compound 1 μM, 6 h) is above 80%.
On to `O=C1CCC(N2Cc3c(ccc(CNC(=O)c4ccc(Cl)c(O)c4)c3F)C2=O)C(=O)N1` (stereo not drawn) [FDAB-83], for which, in the experiment on MV-4-11 cells (MV4-11, MV-4-11 cells, 72 h), the IC50 lay within 10 to 100 nM. At GSPT1 protein (NB-4 cells, compound 1 μM, 6 h), the inhibition at 1 µM is above 80%.
On to `O=C1CCC(N2Cc3c(ccc(CNC(=O)c4ccc(C5CC5)cc4)c3F)C2=O)C(=O)N1` (stereo not drawn) [FDAB-97], for which the IC50 in the experiment with MV-4-11 cells (MV4-11, MV-4-11 cells, 72 h) is 1 to 10 nM. Also, the inhibition at 1 µM at GSPT1 protein (NB-4 cells, compound 1 μM, 6 h) is above 80%.
For the compound `COc1cccc(C(=O)NCc2cc3c(cc2F)C(=O)N(C2CCC(=O)NC2=O)C3)c1` (stereo not drawn) [FDAB-37], in the experiment on MV-4-11 cells (MV4-11, MV-4-11 cells, 72 h), the IC50 was 10 to 100 nM. The inhibition at 1 µM at GSPT1 protein (NB-4 cells, compound 1 μM, 6 h) lay within 50 to 80%.
For `O=C(CCOc1ccccc1)NCc1ccc2c(c1F)CN(C1CCC(=O)NC1=O)C2=O` (stereo not drawn) [FDAB-154] the same measures were 1 to 10 nM and above 80%.
For `N#Cc1ccc2c(c1Cl)CN(C1CCC(=O)NC1=O)C2=O` (stereo not drawn) [FDAB-10], the IC50 in the experiment with MV-4-11 cells (MV4-11, MV-4-11 cells, 72 h) is above 1000 nM. On GSPT1 protein (NB-4 cells, compound 1 μM, 6 h), the inhibition at 1 µM is below 25%.
For `Cc1ccc(C(=O)NCc2ccc3c(c2Cl)CN(C2CCC(=O)NC2=O)C3=O)cc1` (stereo not drawn) [FDAB-76], the IC50 with MV-4-11 cells (MV4-11, MV-4-11 cells, 72 h) was above 1000 nM. Moreover, the inhibition at 1 µM on GSPT1 protein (NB-4 cells, compound 1 μM, 6 h) is below 25%.
The corresponding values for `Cc1ccc(C(=O)NCc2ccc3c(c2Cl)CN(C2CCC(=O)NC2=O)C3=O)c(F)c1` (stereo not drawn) [FDAB-123] are 10 to 100 nM and 50 to 80%.
For `O=C(Cc1cc2ccccc2s1)NCc1cc(F)cc2c1CN(C1CCC(=O)NC1=O)C2=O` (stereo not drawn) [FDAB-169] the same measures were 10 to 100 nM and 50 to 80%.
For the compound `O=C1CCC(N2Cc3c(ccc(CNCc4ccc(Cl)cc4)c3F)C2=O)C(=O)N1` (stereo not drawn) [FDAB-168], the concentration for half-maximal inhibition (IC50) in the experiment on MV-4-11 cells (MV4-11, MV-4-11 cells, 72 h) was in the range of 10 to 100 nM. In addition, the inhibition at 1 µM at GSPT1 protein (NB-4 cells, compound 1 μM, 6 h) was above 80%.
Consider `O=C1CCC(N2Cc3cc(CNC(=O)c4cc5ccccc5o4)cc(F)c3C2=O)C(=O)N1` (stereo not drawn) [FDAB-21], for which the IC50 in the experiment on MV-4-11 cells (MV4-11, MV-4-11 cells, 72 h) was above 1000 nM. At GSPT1 protein (NB-4 cells, compound 1 μM, 6 h), the inhibition at 1 µM is below 25%.
`O=C1CCC(N2Cc3cc(CNC(=O)c4ccc(C(F)(F)F)cc4)c(F)cc3C2=O)C(=O)N1` (stereo not drawn) [FDAB-52]: in the experiment with MV-4-11 cells (MV4-11, MV-4-11 cells, 72 h), the IC50 was 1 to 10 nM. For the same compound, at GSPT1 protein (NB-4 cells, compound 1 μM, 6 h), the inhibition at 1 µM was above 80%.
For `O=C1CCC(N2Cc3cc(CNC(=O)c4cnco4)c(F)cc3C2=O)C(=O)N1` (stereo not drawn) [FDAB-43] the same measures were above 1000 nM and below 25%.
Turning to `Cc1nc2cc(C(=O)NCc3cc4c(cc3F)C(=O)N(C3CCC(=O)NC3=O)C4)ccc2s1` (stereo not drawn) [FDAB-58], in the experiment on MV-4-11 cells (MV4-11, MV-4-11 cells, 72 h), the IC50 is 10 to 100 nM. For the same compound, on GSPT1 protein (NB-4 cells, compound 1 μM, 6 h), the inhibition at 1 µM was above 80%.
The corresponding values for `O=C1CCC(N2Cc3c(ccc(CNC(=O)c4ccc(Cl)c(O)c4)c3Cl)C2=O)C(=O)N1` (stereo not drawn) [FDAB-79] are 10 to 100 nM and above 80%.
For `O=C1CCC(N2Cc3c(ccc(CNC(=O)c4cc5ccccc5[nH]4)c3Cl)C2=O)C(=O)N1` (stereo not drawn) [FDAB-75] the same measures were 1 to 10 nM and 50 to 80%.
For `Cc1ccc(C(=O)NCc2ccc3c(c2F)CN(C2CCC(=O)NC2=O)C3=O)c(N)c1` (stereo not drawn) [FDAB-111], the IC50 in the experiment on MV-4-11 cells (MV4-11, MV-4-11 cells, 72 h) was above 1000 nM. Moreover, the inhibition at 1 µM on GSPT1 protein (NB-4 cells, compound 1 μM, 6 h) was below 25%.
As to `O=C1CCC(N2Cc3cc(CNC(=O)c4cc5ccccc5o4)c(F)cc3C2=O)C(=O)N1` (stereo not drawn) [FDAB-19], in the experiment on MV-4-11 cells (MV4-11, MV-4-11 cells, 72 h), the IC50 is 1 to 10 nM. Also, the inhibition at 1 µM at GSPT1 protein (NB-4 cells, compound 1 μM, 6 h) was above 80%.
On to `CS(=O)(=O)c1ccc(C(=O)NCc2ccc3c(c2F)CN(C2CCC(=O)NC2=O)C3=O)cc1` (stereo not drawn) [FDAB-107], for which the IC50 in the experiment with MV-4-11 cells (MV4-11, MV-4-11 cells, 72 h) is above 1000 nM. For the same compound, the inhibition at 1 µM on GSPT1 protein (NB-4 cells, compound 1 μM, 6 h) was below 25%.
As for `NCc1ccc2c(c1F)CN(C1CCC(=O)NC1=O)C2=O` (stereo not drawn) [FDAB-3], in the experiment on MV-4-11 cells (MV4-11, MV-4-11 cells, 72 h), the half-inhibitory concentration (IC50) was above 1000 nM. Besides, the inhibition at 1 µM at GSPT1 protein (NB-4 cells, compound 1 μM, 6 h) is below 25%.
For `O=C1CCC(N2Cc3c(ccc(CNCc4ccc(Oc5ccccc5)cc4)c3F)C2=O)C(=O)N1` (stereo not drawn) [FDAB-166], the IC50 in the experiment on MV-4-11 cells (MV4-11, 72 h) was in the range of 1 to 10 nM. The inhibition at 1 µM on GSPT1 protein (NB-4, 6 h) is above 80%.
For the compound `CCCc1ccc(C(=O)NCc2ccc3c(c2F)CN(C2CCC(=O)NC2=O)C3=O)cc1` (stereo not drawn) [FDAB-91], the IC50 in the experiment on MV-4-11 cells (MV4-11, MV-4-11 cells, 72 h) is below 1 nM. Moreover, the inhibition at 1 µM on GSPT1 protein (NB-4 cells, compound 1 μM, 6 h) was above 80%.
For `O=C1CCC(N2Cc3cc(CNC(=O)c4ccc(Cl)cc4)c(Cl)cc3C2=O)C(=O)N1` (stereo not drawn) [FDAB-74], the IC50 in the experiment on MV-4-11 cells (MV4-11, MV-4-11 cells, 72 h) was above 1000 nM. Besides, the inhibition at 1 µM at GSPT1 protein (NB-4 cells, compound 1 μM, 6 h) was below 25%.

One may read the IC50 as the midpoint of a concentration-inhibition curve.
